Results reported in PubChem BioAssay (NCI).
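Values below derive from 48-hour exposures of cells grown in 96-well plates, with endpoints linearly interpolated between the two concentrations bracketing the appropriate inhibition level. GI50 = concentration required for 50% inhibition of growth. TGI: concentration producing complete growth inhibition.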

Legend:
Assay in all cases: NCI tumour cell line growth inhibition, 48 h
[1] = test system: 786-0 renal
[2] = test system: A498 renal
[3] = test system: A549 NSCLC
[4] = test system: BT-549 breast
[5] = test system: CAKI-1 renal
[6] = test system: CCRF-CEM leukemia
[7] = test system: COLO 205 colon
[8] = test system: DU-145 prostate
[9] = test system: HCC-2998 colon
[10] = test system: HCT-116 colon
[11] = test system: HCT-15 colon
[12] = test system: HL-60(TB) leukemia
[13] = test system: HOP-62 NSCLC
[14] = test system: HOP-92 NSCLC
[15] = test system: HS 578T breast
[16] = test system: HT29 colon
[17] = test system: IGROV1 ovarian
[18] = test system: K-562 leukemia
[19] = test system: KM12 colon
[20] = test system: LOX IMVI melanoma
[21] = test system: M14 melanoma
[22] = test system: MALME-3M melanoma
[23] = test system: MCF7 breast
[24] = test system: MDA-MB-231 breast
[25] = test system: MDA-MB-435
[26] = test system: MOLT-4 leukemia
[27] = test system: NCI-H226 lung
[28] = test system: NCI-H23 lung
[29] = test system: NCI-H460 lung
[30] = test system: NCI-H522 lung
[31] = test system: NCI/ADR-RES ovarian
[32] = test system: OVCAR-3 ovarian
[33] = test system: OVCAR-4 ovarian
[34] = test system: OVCAR-8 ovarian
[35] = test system: PC-3 prostate
[36] = test system: RPMI-8226 leukemia
[37] = test system: RXF 393 renal
[38] = test system: SF-268 CNS
[39] = test system: SF-295 CNS
[40] = test system: SK-MEL-5 melanoma
[41] = test system: SK-OV-3 ovarian
[42] = test system: SN12C renal
[43] = test system: SNB-19 CNS
[44] = test system: SNB-75 CNS
[45] = test system: SR leukemia
[46] = test system: SW-620 colon
[47] = test system: T-47D breast
[48] = test system: TK-10 renal
[49] = test system: U251 CNS
[50] = test system: UACC-257 melanoma
[51] = test system: UACC-62 melanoma
[52] = test system: UO-31 renal

Compound `Clc1ccc2c(N3CCN(c4ccnc(NC5CCCCC5)n4)CC3)ccnc2c1` has a GI50 [1] of 1.69 µM, a TGI [1] of 3.14 µM and a GI50 [2] of 1.79 µM. For the same compound, the TGI [2] was 8.22 µM, the GI50 [3] was 3.17 µM and the TGI [3] was 10.8 µM. The GI50 [4] was 1.75 µM, the TGI [4] was 3.31 µM and the GI50 [5] was 2.21 µM. It also gave a TGI [5] of 6.87 µM, a GI50 [6] of 2.07 µM and a TGI [6] of 6.07 µM. The GI50 [7] was 1.77 µM, the TGI [7] was 3.43 µM and the GI50 [8] was 3.78 µM. It also gave a TGI [8] of 13 µM, a GI50 [9] of 1.93 µM and a TGI [9] of 3.88 µM. The GI50 [10] was 1.36 µM, the TGI [10] was 2.8 µM and the GI50 [11] was 2.26 µM. It also gave a TGI [11] of 6.74 µM, a GI50 [12] of 2.22 µM and a TGI [12] of 5.07 µM. It also gave a GI50 [13] of 2.35 µM, a TGI [13] of 5.73 µM and a GI50 [14] of 1.68 µM. The TGI [14] was 4.99 µM, the GI50 [15] was 2.41 µM and the TGI [15] was 8.08 µM. It also gave a GI50 [16] of 1.85 µM, a TGI [16] of 4.06 µM and a GI50 [17] of 2.27 µM. It also gave a TGI [17] of 5.04 µM, a GI50 [18] of 2.19 µM and a TGI [18] of 5.43 µM. The GI50 [19] was 2.16 µM, the TGI [19] was 4.49 µM and the GI50 [20] was 1.92 µM. For the same compound, the TGI [20] was 3.46 µM, the GI50 [21] was 1.78 µM and the TGI [21] was 3.42 µM. It also gave a GI50 [22] of 1.98 µM, a TGI [22] of 4.02 µM and a GI50 [23] of 1.76 µM. For the same compound, the TGI [23] was 4.02 µM, the GI50 [24] was 2.01 µM and the TGI [24] was 3.97 µM. For the same compound, the GI50 [25] was 1.91 µM, the TGI [25] was 3.88 µM and the GI50 [26] was 2.13 µM. For the same compound, the TGI [26] was 5.47 µM, the GI50 [27] was 3.41 µM and the TGI [27] was 16.6 µM. The GI50 [28] was 3.4 µM, the TGI [28] was 9.71 µM and the GI50 [29] was 2.05 µM. The TGI [29] was 4.23 µM, the GI50 [30] was 1.97 µM and the TGI [30] was 3.84 µM. It also gave a GI50 [31] of 2.44 µM, a TGI [31] of 6.66 µM and a GI50 [32] of 1.74 µM. For the same compound, the TGI [32] was 3.49 µM, the GI50 [33] was 2.56 µM and the TGI [33] was 11.2 µM. The GI50 [34] was 3.27 µM, the TGI [34] was 12.6 µM and the GI50 [35] was 1.56 µM. It also gave a TGI [35] of 3.3 µM, a GI50 [36] of 1.81 µM and a TGI [36] of 4.69 µM. The GI50 [37] was 1.84 µM, the TGI [37] was 3.54 µM and the GI50 [38] was 3.65 µM. The TGI [38] was 13.3 µM, the GI50 [39] was 1.91 µM and the TGI [39] was 3.79 µM. For the same compound, the GI50 [40] was 1.7 µM, the TGI [40] was 3.14 µM and the GI50 [41] was 4.2 µM. It also gave a TGI [41] of 14 µM, a GI50 [42] of 1.79 µM and a TGI [42] of 3.6 µM. It also gave a GI50 [43] of 2.47 µM, a TGI [43] of 7.33 µM and a GI50 [44] of 2.16 µM. The TGI [44] was 6.74 µM, the GI50 [45] was 1.83 µM and the TGI [45] was 4.48 µM. It also gave a GI50 [46] of 1.68 µM, a TGI [46] of 3.72 µM and a GI50 [47] of 2.11 µM. It also gave a TGI [47] of 5.5 µM, a GI50 [48] of 2.29 µM and a TGI [48] of 5.16 µM. For the same compound, the GI50 [49] was 1.62 µM, the TGI [49] was 3 µM and the GI50 [50] was 1.95 µM. For the same compound, the TGI [50] was 4.11 µM, the GI50 [51] was 1.7 µM and the TGI [51] was 3.26 µM. The GI50 [52] was 1.31 µM and the TGI [52] was 2.87 µM.
